{"source": "patent US5138101A", "about": "“Recovery of high-boiling aldehydes from rhodium-catalyzed hydroformylation processes” (Eastman Kodak Company, priority 1991, dated 1992)", "experiment": "Partitioning (partition coefficient, Kp) of hydroformylation products and hydroformylation solvent between hydroformylation solvent phase and alkanol/water extraction solution phase", "type": "physicochemical", "source_text": "The extraction process described herein is the equilibration of a particular compound dissolving into two separate liquid phases. The effectiveness of the present extraction process may be measured in terms of the partition coefficient (Kp) for a compound \"X\" which is defined as: [formula] […] High Kp values give high extraction efficiencies requiring lower amounts of extraction solution. Similarly, it is desirable that the Kp of the hydroformylation solvent be a low value. This simplifies purification of the aldehyde products down-stream. In the hydroformylation of diolefins to dialdehydes, it also is desirable to have Kp values for the dialdehyde products larger than the Kp values of the intermediate mono-aldehyde mono-olefin (formyl-olefin) intermediate formed in the hydroformylation reaction. This permits recycling of the formyl-olefin to the hydroformylation reactor in the hydroformylation solvent for further reaction to the desired dialdehyde product, while selectively extracting the desired di-aldehyde product. Likewise, for the same reason, it is desirable to have low Kp values for the olefin or polyolefin feedstocks used in the process.\nThe extraction examples were carried out in a 300 mL, 3-neck, glass flask equipped with a Teflon magnetic stir bar, a thermometer to measure the temperature of the liquid, a septum for the use of a syringe, a heating mantle and a nitrogen bubbler blanket for the system. […] […] The mixture was stirred at 25° C. for 30 minutes to reach equilibrium, stirring was stopped, and the mixture was allowed to separate into 2 layers (phases) over a 30 minute period of time. […] Samples of each phase were taken with a syringe and chromatographed on a Hewlett Packard Model 5730 capillary FID gas chromatograph. The instrument used a 30 meter DB-1 column (Supelco.) with a programming rate of a 4 minute hold at 70° C. with a programming rate of 8° C./minute to 250° C. The calculations for the weights of hydroformylation products in each phase were carried out using standard procedures using the dodecane as an internal standard for the catalyst layer and methanol as the internal standard for the aqueous layer. The initial volumes of the two phases were used for estimation of the volumes of the two phases at equilibrium to obtain the concentrations of the products in each phase.\nThe partition coefficients (Kp) were calculated for the C9-enal and C10-dial products for equilibrium between the dodecane hydroformylation solvent and the extraction solution phases at 25° C.\nThe two phases in the flask were heated to and maintained at 53° C. with stirring for 30 minutes to reach equilibrium. The mixture was allowed to separate into 2 layers at 53° C. and each layer was sampled and analyzed as described above. […] The partitioning procedure was repeated at 70° C."}
{"molecule": "CC(C)c1ccc(C(C)C)cc1", "note": "[p-diisopropylbenzene]", "values": [{"measurement": "Partition Coefficient", "setting": "Example 3, Ref. Ex. 19, MeOH:water 3:1, 29° C.", "value": 0.075}, {"measurement": "Partition Coefficient", "setting": "Example 4, Ref. Ex. 19, MeOH:water 3:1, 58° C.", "value": 0.118}, {"measurement": "Partition Coefficient", "setting": "Example 5, Ref. Ex. 19, MeOH:water 1.5:1, 58° C.", "value": 0.050}, {"measurement": "Partition Coefficient", "setting": "Example 6, Ref. Ex. 19, MeOH:water 1.5:1, 31° C.", "value": 0.018}, {"measurement": "Partition Coefficient", "setting": "Example 18, Ref. Ex. 24, EtOH:water 7:4, 52° C.", "value": 0.033}, {"measurement": "Partition Coefficient", "setting": "Example 19, Ref. Ex. 24, EtOH:water 7:4, 32° C.", "value": 0.009}, {"measurement": "Partition Coefficient", "setting": "Example 24, Ref. Ex. 19, MeOH:water 3:1, 29° C.", "value": 0.075}, {"measurement": "Partition Coefficient", "setting": "Example 25, Ref. Ex. 19, MeOH:water 3:1, 58° C.", "value": 0.118}, {"measurement": "Partition Coefficient", "setting": "Example 26, Ref. Ex. 19, MeOH:water 1.5:1, 58° C.", "value": 0.050}, {"measurement": "Partition Coefficient", "setting": "Example 27, Ref. Ex. 19, MeOH:water 1.5:1, 31° C.", "value": 0.018}, {"measurement": "Partition Coefficient", "setting": "Example 28, Ref. Ex. 24, EtOH:water 3:1, 48° C.", "value": 0.298}, {"measurement": "Partition Coefficient", "setting": "Example 29, Ref. Ex. 24, EtOH:water 3:1, 33° C.", "value": 0.229}, {"measurement": "Partition Coefficient", "setting": "Example 30, Ref. Ex. 24, EtOH:water 7:4, 52° C.", "value": 0.033}, {"measurement": "Partition Coefficient", "setting": "Example 31, methanol/water 37/12 mL, 50° C., Na 0", "value": 0.096}, {"measurement": "Partition Coefficient", "setting": "Example 32, 50° C., Na 82 mg/L as 2-ethylhexanoate", "value": 0.125}, {"measurement": "Partition Coefficient", "setting": "Example 33, 50° C., Na 164 mg/L as 2-ethylhexanoate", "value": 0.115}, {"measurement": "Partition Coefficient", "setting": "Example 34, 50° C., Na 327 mg/L as 2-ethylhexanoate", "value": 0.131}, {"measurement": "Partition Coefficient", "setting": "Example 35, 50° C., Na 653 mg/L as 2-ethylhexanoate", "value": 0.137}, {"measurement": "Partition Coefficient", "setting": "Example 36, 50° C., Na 1307 mg/L as 2-ethylhexanoate", "value": 0.063}, {"measurement": "Partition Coefficient", "setting": "Example 37, methanol/water 37/12 mL, 50° C., Na 0", "value": 0.064}, {"measurement": "Partition Coefficient", "setting": "Example 38, 50° C., Na 82 mg/L as oleate", "value": 0.083}, {"measurement": "Partition Coefficient", "setting": "Example 39, 50° C., Na 164 mg/L as oleate", "value": 0.062}, {"measurement": "Partition Coefficient", "setting": "Example 40, 50° C., Na 327 mg/L as oleate", "value": 0.083}, {"measurement": "Partition Coefficient", "setting": "Example 41, 50° C., Na 653 mg/L as oleate", "value": 0.052}, {"measurement": "Partition Coefficient", "setting": "Example 42, 50° C., Na 1307 mg/L as oleate", "value": 0.063}, {"measurement": "Partition Coefficient", "setting": "Example 43, methanol/water 37/12 mL, 50° C., Na 0", "value": 0.074}, {"measurement": "Partition Coefficient", "setting": "Example 44, 50° C., Na 82 mg/L as n butyrate", "value": 0.063}, {"measurement": "Partition Coefficient", "setting": "Example 45, 50° C., Na 164 mg/L as n butyrate", "value": 0.073}, {"measurement": "Partition Coefficient", "setting": "Example 46, 50° C., Na 327 mg/L as n butyrate", "value": 0.053}, {"measurement": "Partition Coefficient", "setting": "Example 47, 50° C., Na 653 mg/L as n butyrate", "value": 0.051}, {"measurement": "Partition Coefficient", "setting": "Example 48, 50° C., Na 1307 mg/L as n butyrate", "value": 0.038}, {"measurement": "Partition Coefficient", "setting": "Example 49, methanol/water 37/27 mL, Na 0", "value": 0.0164}, {"measurement": "Partition Coefficient", "setting": "Example 50, methanol/water 37/27 mL, Na 100 as oleate", "value": 0.0210}, {"measurement": "Partition Coefficient", "setting": "Example 51, methanol/water 37/27 mL, Na 200 as oleate", "value": 0.0210}, {"measurement": "Partition Coefficients", "setting": "Example 52, Ref. Ex. 1, MeOH:water 3:1, 50° C., Na 0", "value": 0.115}, {"measurement": "Partition Coefficients", "setting": "Example 54, Ref. Ex. 1, Na 164 mg/L", "value": 0.073}, {"measurement": "Partition Coefficients", "setting": "Example 56, Ref. Ex. 11, Na 0", "value": 0.081}, {"measurement": "Partition Coefficients", "setting": "Example 58, Ref. Ex. 11, Na 164 mg/L", "value": 0.073}, {"measurement": "Partition Coefficients", "setting": "Example 60, Ref. Ex. 12, Na 0", "value": 0.071}, {"measurement": "Partition Coefficients", "setting": "Example 62, Ref. Ex. 12, Na 164 mg/L", "value": 0.067}, {"measurement": "Partition Coefficients", "setting": "Example 64, Ref. Ex. 7, Na 0", "value": 0.056}, {"measurement": "Partition Coefficients", "setting": "Example 66, Ref. Ex. 7, Na 164 mg/L", "value": 0.072}, {"measurement": "Partition Coefficients", "setting": "Example 68, Ref. Ex. 13, Na 0", "value": 0.076}, {"measurement": "Partition Coefficients", "setting": "Example 70, Ref. Ex. 13, Na 164 mg/L", "value": 0.060}, {"measurement": "Partition Coefficient", "setting": "Example 79, VCH product, Ref. Ex. 3, 40 mL methanol, 10 mL water, 50° C.", "value": 0.0859}, {"measurement": "Partition Coefficient", "setting": "Example 80, as Example 79 plus 10 mL water", "value": 0.0233}, {"measurement": "Partition Coefficient", "setting": "Example 81, as Example 80 plus 10 mL water", "value": 0.0050}, {"measurement": "Partition Coefficient", "setting": "Example 82, as Example 81 plus 10 mL water", "value": 0.0017}, {"measurement": "Partition Coefficient", "setting": "Example 83, DCPD product, Ref. Ex. 4, procedure of Examples 79-82", "value": 0.0724}, {"measurement": "Partition Coefficient", "setting": "Example 84, DCPD product, Ref. Ex. 4, procedure of Examples 79-82", "value": 0.0469}, {"measurement": "Partition Coefficient", "setting": "Example 85, DCPD product, Ref. Ex. 4, procedure of Examples 79-82", "value": 0.0269}, {"measurement": "Partition Coefficient", "setting": "Example 86, CDDT product, Ref. Ex. 2, 37 mL methanol, 12 mL water, 25° C.", "value": 0.0297}, {"measurement": "Partition Coefficient", "setting": "Example 87, as Example 86 plus 10 mL methanol", "value": 0.077}, {"measurement": "Partition Coefficient", "setting": "Example C-7, Ref. Ex. 19, DEG:water 3:1, 30° C.", "value": 0.128}, {"measurement": "Partition Coefficient", "setting": "Example C-8, Ref. Ex. 19, DEG:water 1.5:1, 25° C.", "value": 0.030}, {"measurement": "Partition Coefficient", "setting": "Example C-9, Ref. Ex. 10, PrOH:water 3:1, 50° C.", "value": 0.055}, {"measurement": "Partition Coefficient", "setting": "Example C-10, Ref. Ex. 10, PrOH:water 1.5:1, 50° C.", "value": 0.018}, {"measurement": "Partition Coefficient", "setting": "Example C-11, Ref. Ex. 10, PrOH:water 1:1, 50° C.", "value": 0.013}, {"measurement": "Partition Coefficient", "setting": "Example C-16, Ref. Ex. 19, DEG, no water, 58° C.", "value": 0.128}, {"measurement": "Partition Coefficient", "setting": "Example C-17, Ref. Ex. 19, DEG, no water, 33° C.", "value": 0.128}, {"measurement": "Partition Coefficient", "setting": "Example C-18, Ref. Ex. 19, DEG:water 3:1, 30° C.", "value": 0.030}, {"measurement": "Partition Coefficient", "setting": "Example C-19, Ref. Ex. 19, DEG:water 3:1, 60° C.", "value": 0.014}, {"measurement": "Partition Coefficient", "setting": "Example C-20, Ref. Ex. 19, DEG:water 1.5:1, 60° C.", "value": 0.0061}, {"measurement": "Partition Coefficient", "setting": "Example C-21, Ref. Ex. 19, DEG:water 1.5:1, 25° C.", "value": 0.0030}, {"measurement": "Partition Coefficient", "setting": "Example C-22, Ref. Ex. 10, PrOH:water 3:1, 50° C.", "value": 0.055}, {"measurement": "Partition Coefficient", "setting": "Example C-23, Ref. Ex. 10, PrOH:water 1.5:1, 50° C.", "value": 0.0182}, {"measurement": "Partition Coefficient", "setting": "Example C-24, Ref. Ex. 10, PrOH:water 1:1, 50° C.", "value": 0.0132}]}
